Measured values published in ChEMBL document CHEMBL3997847, “Development of a novel near-infrared fluorescent theranostic combretastain A-4 analogue, YK-5-252, to target triple negative breast cancer” (Bioorg Med Chem, 2017).
Active and inactive are the calls of the source. The calls are words filed in the database; no cut-off is given here.

How the values were obtained:
[1] = Retention time of the compound at 200 uM in presence of 50 mM GSH by HPLC analysis
Homo sapiens = species: Homo sapiens; assay: Inhibition of beta-tubulin polymerization in human MDA-MB-231 cells at 50 nM after 1 hr by NucBlue staining based immunofluorescence microscopic assay; assay type: cell-based
MDA-MB-231 = assay: Growth inhibition of human MDA-MB-231 cells after 72 hrs by MTT assay; assay type: cell-based; settings: MDA-MB-231, 72 h

| SMILES | Retention time [1] [min] | inhibition (Homo sapiens) | GI50 (MDA-MB-231) [nM] |
| --- | --- | --- | --- |
| N#CC(C#N)=C1C=C(/C=C/c2ccc(N)cc2)Oc2ccccc21 | 8.6 | – | – |
| COc1ccc(/C=C\c2cc(OC)c(OC)c(OC)c2)cc1O [COMBRETASTATIN A4] | 6.8 | Active | 2.81 |
